Experimental data published in the NIST ThermoML archive (doi:10.1021/je0340248).

Assay: xn = mol fraction of the nth substance listed
Conditions: 101 kPa, Liquid

OCCOCCOCCO [triethylene glycol] + COC(C)=O
Conditions	mass density, 298.15 K [kg/m3]	mass density, 303.15 K [kg/m3]	mass density, 308.15 K [kg/m3]	mass density, 313.15 K [kg/m3]	speed of sound, 298.15 K [m/s]	speed of sound, 308.15 K [m/s]	viscosity, 298.15 K [mPa·s]	viscosity, 308.15 K [mPa·s]
x2 = 0.0455	1115.19	1111.41	1107.51	1105.03	1598	1572	32.01	19.45
x2 = 0.1522	1103.73	1099.72	1095.8	1093.05	1559	1533	25.74	15.15
x2 = 0.2512	1091.78	1087.49	1083.5	1080.38	1521	1493	19.76	11.49
x2 = 0.3504	1078.53	1073.91	1069.84	1066.3	1482	1452	14.27	8.336
x2 = 0.4457	1064.43	1059.49	1055.35	1051.39	1446	1414	9.869	5.882
x2 = 0.49	1057.35	1052.25	1048.08	1043.93	1428	1396	8.158	4.935
x2 = 0.5519	1046.77	1041.46	1037.27	1032.85	1402	1369	6.128	3.806
x2 = 0.6512	1027.79	1022.13	1017.92	1013.08	1357	1323	3.687	2.422
x2 = 0.7516	1005.3	999.28	995.06	989.76	1305	1268	2.075	1.467
x2 = 0.8513	978.49	972.08	967.82	962.01	1246	1206	1.103	0.854
x2 = 0.9424	948.8	941.98	937.63	931.21	1188	1143	0.587	0.501

CC(O)CO (configuration not stated) [1,2-propanediol] + COC(C)=O
Conditions	mass density, 298.15 K [kg/m3]	mass density, 303.15 K [kg/m3]	mass density, 308.15 K [kg/m3]	mass density, 313.15 K [kg/m3]	speed of sound, 298.15 K [m/s]	speed of sound, 308.15 K [m/s]	viscosity, 298.15 K [mPa·s]	viscosity, 308.15 K [mPa·s]
x2 = 0.0465	1027.72	1023.69	1020.09	1015.96	1472	1434	34.29	19.21
x2 = 0.1493	1016.8	1012.28	1008.63	1004.03	1429	1391	20.44	11.62
x2 = 0.251	1006.23	1001.34	997.58	992.61	1388	1350	12.35	7.189
x2 = 0.3512	995.96	990.75	986.86	981.59	1350	1313	7.576	4.553
x2 = 0.4412	986.79	981.3	977.29	971.76	1318	1281	4.915	3.063
x2 = 0.4906	981.76	976.11	972.05	966.37	1301	1264	3.887	2.478
x2 = 0.5499	975.7	969.85	965.73	959.87	1281	1244	2.939	1.932
x2 = 0.6483	965.55	959.34	955.15	949	1249	1211	1.859	1.294
x2 = 0.7483	955.01	948.45	944.2	937.77	1218	1178	1.176	0.875
x2 = 0.8499	943.97	937.1	932.79	926.1	1189	1147	0.744	0.598
x2 = 0.9447	933.26	926.21	921.8	914.96	1164	1119	0.489	0.425

CC(O)CO (configuration not stated) [1,2-propanediol] + CCCCOC(C)=O
Conditions	mass density, 298.15 K [kg/m3]	mass density, 303.15 K [kg/m3]	mass density, 308.15 K [kg/m3]	mass density, 313.15 K [kg/m3]	speed of sound, 298.15 K [m/s]	speed of sound, 308.15 K [m/s]	viscosity, 298.15 K [mPa·s]	viscosity, 308.15 K [mPa·s]
x2 = 0.0445	1020.01	1016.1	1012.28	1008.28	1467	1429	31.87	18.51
x2 = 0.1493	993.58	989.44	985.19	980.98	1407	1372	16.1	10.19
x2 = 0.2487	972.28	968.01	963.42	959.09	1355	1322	8.935	6.083
x2 = 0.3511	953.32	948.95	944.08	939.65	1310	1280	5.175	3.762
x2 = 0.446	937.92	933.47	928.39	923.85	1276	1246	3.295	2.523
x2 = 0.4973	930.34	925.83	920.66	916.07	1260	1230	2.638	2.071
x2 = 0.5491	923.15	918.58	913.33	908.68	1247	1217	2.141	1.719
x2 = 0.6504	910.32	905.62	900.23	895.46	1226	1194	1.489	1.241
x2 = 0.7495	899.15	894.34	888.84	883.97	1210	1178	1.106	0.947
x2 = 0.8489	889.19	884.29	878.67	873.72	1200	1165	0.87	0.759
x2 = 0.946	880.55	875.62	869.86	864.9	1194	1155	0.727	0.64

OCCOCCOCCO [triethylene glycol] + CCOC(C)=O
Conditions	mass density, 298.15 K [kg/m3]	mass density, 303.15 K [kg/m3]	mass density, 308.15 K [kg/m3]	mass density, 313.15 K [kg/m3]	speed of sound, 298.15 K [m/s]	speed of sound, 308.15 K [m/s]	viscosity, 298.15 K [mPa·s]	viscosity, 308.15 K [mPa·s]
x2 = 0.0466	1112.15	1108.39	1104.32	1101.76	1592	1567	30.14	18.65
x2 = 0.1482	1095.3	1091.27	1086.97	1084.07	1547	1523	22.05	13.71
x2 = 0.25	1077.4	1073.02	1068.55	1065.26	1499	1473	15.58	9.818
x2 = 0.3499	1058.65	1053.94	1049.34	1045.63	1452	1426	10.73	6.905
x2 = 0.4493	1038.63	1033.67	1028.96	1024.82	1408	1379	7.167	4.749
x2 = 0.4995	1027.95	1022.9	1018.12	1013.77	1386	1356	5.775	3.896
x2 = 0.5503	1016.71	1011.6	1006.75	1002.18	1363	1333	4.602	3.168
x2 = 0.6497	993.4	988.21	983.2	978.19	1318	1286	2.881	2.076
x2 = 0.749	968.18	962.95	957.73	952.29	1271	1236	1.748	1.329
x2 = 0.8503	940.27	934.9	929.41	923.53	1220	1181	1.015	0.823
x2 = 0.9417	913.03	907.33	901.55	895.28	1171	1130	0.604	0.523
